Laboratory results from paper PMC5698418 (Nature Communications, 2017).
Counter-ions that a name gives are not always drawn. Like-named read-outs stand apart in the source and are kept apart here. Non-standard residues stand in square brackets, D forms with d. Residues, ends and D or L forms follow the SMILES beside them. dTrp(2-Me) = Cc1[nH]c2ccccc2c1C[C@@H](N)C(=O)O

System: BDNF-induced nuclear Arc expression in primary cortical neurons
Experiment: Chemogenomic screen: high-content image-based assay of BDNF-induced nuclear Arc expression (96-well)
Assay type: cell-based, mouse
Method: To increase the throughput of our pharmacological screening for modulators of Arc, the above mentioned assay was adapted to cultures of mouse primary cortical neurons in 96-well plates.
All 319 compounds were initially tested at a final concentration of 16.7 µM with three biological replicates.
Screening of compounds in the chemogenomic library was carried out using DIV13 primary forebrain cortical neurons cultured on poly-L-lysine/laminin-coated 96-well plates (Ibidi USA, Madison, WI). Cells were seeded at a density of 30,000 cells per well and treated with the compound library and BDNF according to the experimental design presented in Fig. 3a. After experimental treatment, cells were processed for Arc and acetyl-H3K9 immunocytochemistry according to the protocol described above. Both antigens (Arc and acetyl-H3K9) were imaged using an IN Cell Analyzer 6000 imaging system and a ×40 objective. […] High-throughput quantification of nuclear Arc immunofluorescence signal was performed in a similar fashion than the low-throughput procedure described above but with the exception that acetyl-H3K9 was used as a nuclear mask to guide the automated quantification of nuclear Arc immunofluorescence signal.

[1] = chemogenomic (SMART) screen, BDNF-induced nuclear Arc expression, primary cortical neurons, BDNF control 19.5
[2] = nuclear Arc-positive cells relative to DMSO + BDNF control, negative values = decrease
[3] = BDNF-induced nuclear Arc expression, primary cortical neurons, chemogenomic screen

SMILES | Percentage of cell with nuclear Arc immunostaining above 2σ threshold [1] [%] | Fold-change — Normalized to DMSO control (BDNF) [2] [fold] | also measured
C=C[C@@]1(C)CC(=O)[C@]2(O)[C@@]3(C)[C@@H](O)CCC(C)(C)[C@@H]3[C@H](OC(=O)CCN(C)C)[C@H](OC(C)=O)[C@@]2(C)O1.Cl [Colforsin dapropate hydrochloride] | 21.7 | 1.1 | –
CN1C(=O)CC[C@H]1c1cccnc1 [Cotinine] | 30.8 | 1.6 | –
CN(C)CCC=C1c2ccccc2C=Cc2ccccc21 [Cyclobenzaprine] | 14.1 | – | –
NS(=O)(=O)c1cc2c(cc1Cl)NC(C1CC3C=CC1C3)NS2(=O)=O (stereo not drawn) [Cyclothiazide] | – | – | Percentage of cell with nuclear Arc immunostaining above 2σ threshold [3]: 8.4%
Nc1ccn([C@@H]2O[C@H](CO)[C@@H](O)[C@H]2O)c(=O)n1 [Cytidine] | 34.8 | 1.8 | –
O=c1cccc2n1C[C@@H]1CNC[C@H]2C1 [Cytisine] | – | – | Percentage of cell with nuclear Arc immunostaining above 2σ threshold: 15.7%
Clc1ccc(C23CNCC2C3)cc1Cl (stereo not drawn) [DOV-216,303] | – | – | Percentage of cell with nuclear Arc immunostaining above 2σ threshold: 6.5%; Fold-change — Normalized to DMSO control (BDNF) (nuclear Arc-positive cells relative to DMSO control (BDNF), negative = decrease): -3.0 fold
O=c1c(-c2ccc(O)cc2)coc2cc(O)ccc12 [Daidzein] | 40.8 | 2.1 | –
CNCCCN1c2ccccc2CCc2ccccc21 [Desipramine] | – | – | Percentage of cell with nuclear Arc immunostaining above 2σ threshold [3]: 11.3%
CN(C)CC(c1ccc(O)cc1)C1(O)CCCCC1 (stereo not drawn) [Desvenlafaxine] | 33.0 | 1.7 | –
COc1ccc2c(c1)[C@]13CCCC[C@@H]1[C@H](C2)N(C)CC3 [Dextromethorphan] | 19.7 | 1.0 | –
CN1C[C@H](C(=O)N[C@]2(C)O[C@@]3(O)[C@@H]4CCCN4C(=O)[C@H](Cc4ccccc4)N3C2=O)C[C@@H]2c3cccc4[nH]cc(c34)C[C@H]21.CN1C[C@H](C(=O)N[C@]2(C)O[C@@]3(O)[C@@H]4CCCN4C(=O)[C@H](Cc4ccccc4)N3C2=O)C[C@@H]2c3cccc4[nH]cc(c34)C[C@H]21.O=C(O)C(O)C(O)C(=O)O [Dihydroergotamine tartrate] | 22.0 | 1.1 | –
C[C@]12N[C@H](Cc3ccccc31)c1ccccc12 [Dizocilpine] | – | 1.1 | Percentage of cell with nuclear Arc immunostaining above 2σ threshold: 21.2%
O=c1[nH]c2ccccc2n1CCCN1CCC(n2c(=O)[nH]c3cc(Cl)ccc32)CC1 [Domperidone] | 15.3 | – | –
CCN[C@H]1C[C@H](C)S(=O)(=O)c2sc(S(N)(=O)=O)cc21 [Dorzolamide] | – | – | Percentage of cell with nuclear Arc immunostaining above 2σ threshold [3]: 7.1%
CN(C)CC/C=C1\c2ccccc2CSc2ccccc21 [Dosulepin] | 16.7 | – | –
CN(C)CCC=C1c2ccccc2COc2ccccc21 [Doxepin] | – | – | Percentage of cell with nuclear Arc immunostaining above 2σ threshold [3]: 10.2%
Cn1c(=O)c2c(ncn2CC(O)CO)n(C)c1=O (stereo not drawn) [Dyphylline] | 17.0 | – | –
Cc1[nH]c2ccc(Cl)cc2c1C1=CCNCC1 [EMD-386,088] | – | 1.2 | Percentage of cell with nuclear Arc immunostaining above 2σ threshold: 22.7%
CN1CCC[C@@H]1Cc1c[nH]c2ccc(CCS(=O)(=O)c3ccccc3)cc12 [Eletriptan] | – | – | Percentage of cell with nuclear Arc immunostaining above 2σ threshold [3]: 3.7%
CCOC(=O)[C@H](CCc1ccccc1)N[C@@H](C)C(=O)N1CCC[C@H]1C(=O)O [Enalapril] | 22.4 | 1.1 | –
CCN(CC)C(=O)/C(C#N)=C/c1cc(O)c(O)c([N+](=O)[O-])c1 [Entacapone] | 27.9 | 1.4 | –
CN(C)CCC[C@@]1(c2ccc(F)cc2)OCc2cc(C#N)ccc21 [Escitalopram oxalate] | 26.3 | 1.4 | –
CCOc1ccc(Cc2nccc3cc(OCC)c(OCC)cc23)cc1OCC [Ethaverine] | – | – | Percentage of cell with nuclear Arc immunostaining above 2σ threshold [3]: 1.3%
CCN(CC)C(C)CN1c2ccccc2Sc2ccccc21 (stereo not drawn) [Ethopropazine] | 27.2 | 1.4 | –
CCC1(C)CC(=O)NC1=O (stereo not drawn) [Ethosuximide] | 21.8 | 1.1 | –
CCOc1ccc2nc(S(N)(=O)=O)sc2c1 [Ethoxzolamide] | – | – | Percentage of cell with nuclear Arc immunostaining above 2σ threshold [3]: 8.4%

SMILES | Percentage of cell with nuclear Arc immunostaining above 2σ threshold [1] [%] | Fold-change — Normalized to DMSO control (BDNF) [2] [fold] | also measured
CCNC1=Nc2ccc(Cl)cc2C(C)(c2ccccc2)O1 (stereo not drawn) [Etifoxine] | – | – | Percentage of cell with nuclear Arc immunostaining above 2σ threshold: 0.0%
CCOC(=O)c1cncn1[C@H](C)c1ccccc1 [Etomidate] | – | – | Percentage of cell with nuclear Arc immunostaining above 2σ threshold: 13.0%
Cc1nc(C(=O)NCC(=O)O)c(O)c2ccc(Oc3ccccc3)cc12 [FG-4592] | 26.8 | 1.4 | –
CC(C)c1c(CN(C)C(C)Cc2ccccc2)n(C)n(-c2ccccc2)c1=O (stereo not drawn) [Famprofazone] | – | – | Percentage of cell with nuclear Arc immunostaining above 2σ threshold: 18.1%
O=c1[nH]c2cc(C(F)(F)F)c(N3CCOCC3)cc2n(CP(=O)(O)O)c1=O [Fanapanel] | – | – | Percentage of cell with nuclear Arc immunostaining above 2σ threshold [3]: 8.8%
NC(=O)OCC(COC(N)=O)c1ccccc1 [Felbamate] | 14.3 | – | –
O=C(COc1ccc(Cl)cc1)N1CCN(Cc2ccc3c(c2)OCO3)CC1 [Fipexide] | 41.7 | 2.1 | –
Cc1c(-c2ccccc2)oc2c(C(=O)OCCN3CCCCC3)cccc2c1=O [Flavoxate] | – | – | Percentage of cell with nuclear Arc immunostaining above 2σ threshold [3]: 3.1%
CCOC(=O)c1ncn2c1CN(C)C(=O)c1cc(F)ccc1-2 [Flumazenil] | 32.1 | 1.6 | –
OCCN1CCN(CCCN2c3ccccc3Sc3ccc(C(F)(F)F)cc32)CC1 [Fluphenazine] | – | – | Percentage of cell with nuclear Arc immunostaining above 2σ threshold [3]: 0.3%
COCCCC/C(=N\OCCN)c1ccc(C(F)(F)F)cc1 [Fluvoxamine] | – | – | Percentage of cell with nuclear Arc immunostaining above 2σ threshold [3]: 8.5%
C=C[C@@]1(C)CC(=O)[C@]2(O)[C@@]3(C)[C@@H](O)CCC(C)(C)[C@@H]3[C@H](O)[C@H](OC(C)=O)[C@@]2(C)O1 [Forskolin] | 29.3 | 1.5 | –
CC1=NN=C(c2ccc(N)cc2)c2cc3c(cc2C1)OCO3 [GYKI-52466] | 12.0 | – | –
CNC(=O)N1N=C(c2ccc(N)cc2)c2cc3c(cc2CC1C)OCO3 (stereo not drawn) [GYKI-53655] | 35.7 | 1.8 | –
NCC1(CC(=O)O)CCCCC1 [Gabapentin] | – | – | Percentage of cell with nuclear Arc immunostaining above 2σ threshold: 9.0%
Oc1noc2c1CCNC2 [Gaboxadol] | – | – | Percentage of cell with nuclear Arc immunostaining above 2σ threshold: 13.6%
COc1ccc2c3c1O[C@H]1C[C@@H](O)C=C[C@@]31CCN(C)C2 [Galantamine] | – | – | Percentage of cell with nuclear Arc immunostaining above 2σ threshold: 4.2%
CC(=O)[C@H]1CC[C@H]2[C@@H]3CC[C@H]4C[C@](C)(O)CC[C@]4(C)[C@H]3CC[C@]12C [Ganaxolone] | – | 1.2 | Percentage of cell with nuclear Arc immunostaining above 2σ threshold: 22.6%
O=c1c(-c2ccc(O)cc2)coc2cc(O)cc(O)c12 [Genistein] | 31.7 | 1.6 | –
CNC(C)C1CCC(N)C(OC2C(N)CC(N)C(OC3OCC(C)(O)C(NC)C3O)C2O)O1 (stereo not drawn) [Gentamicin] | – | – | Percentage of cell with nuclear Arc immunostaining above 2σ threshold [3]: 10.3%
C[C@@H]1C(=O)O[C@H]2C[C@@]34[C@H]5C[C@@H](C(C)(C)C)[C@]36[C@@H](OC(=O)[C@@H]6O)O[C@@]4(C(=O)O5)[C@]21O [Ginkgolide A] | 19.3 | – | –
N=C(N)NC(=O)Cc1c(Cl)cccc1Cl [Guanfacine hydrochloride] | 20.9 | 1.1 | –
COc1ccc2c3c([nH]c2c1)C(C)=NCC3 [Harmaline] | – | 1.5 | Percentage of cell with nuclear Arc immunostaining above 2σ threshold: 28.8%
Cc1nccc2c1[nH]c1ccccc12 [Harmane] | – | 2.0 | Percentage of cell with nuclear Arc immunostaining above 2σ threshold: 38.8%
Cc1[nH]c2ccccc2c1C[C@@H](NC(=O)[C@@H](N)Cc1cnc[nH]1)C(=O)N[C@@H](C)C(=O)N[C@@H](Cc1c[nH]c2ccccc12)C(=O)N[C@H](Cc1ccccc1)C(=O)N[C@@H](CCCCN)C(N)=O [Hexarelin] (H-H[dTrp(2-Me)]AW[dF]K-NH2) | 17.9 | -1.1 | –
C/C=C1\[C@H]2C=C(C)C[C@]1(N)c1ccc(=O)[nH]c1C2 [Huperzine A] | 14.8 | – | –
Nc1c2c(nc3ccccc13)CCCC2O (stereo not drawn) [Hydroxytacrine] | 36.9 | 1.9 | –
